Assay results from patent US10167279B2 (NOVARTIS AG, priority 2014, dated 2019).
pIC50: −log10 of the molar value.

Assays:
C-Raf FL = C-Raf FL (Homo sapiens (Human), UniProt P04049, Y340E/Y341E); experiment: In vitro Raf activity determination (Alpha Screen, phospho-MEK), C-Raf FL (full length, Y340E/Y341E); type: biochemical; settings: ATP 1 μM; 60 min pre-incubation; 1 hour reaction; column head does not say FL or TR
In short: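 Read-out is AlphaScreen luminescence using rabbit anti-p-MEK with protein A beads after EDTA stop, with IC50 fitted by non-linear regression. Reaction: Sf9-derived C-Raf plus biotinylated E. coli MEK1 K97R substrate, pH 7.5 Tris/MgCl2/DTT buffer, compound preincubated 60 min at room temperature.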

b-Raf (V600E) = b-Raf (V600E) (Homo sapiens (Human), UniProt P15056, V600E); experiment: In vitro Raf activity determination (Alpha Screen, phospho-MEK), b-Raf (V600E); type: biochemical; settings: ATP 10 μM, 60 min pre-incubation, 3 hours reaction
Chain of b-Raf (V600E) (P15056 whole entry V600E): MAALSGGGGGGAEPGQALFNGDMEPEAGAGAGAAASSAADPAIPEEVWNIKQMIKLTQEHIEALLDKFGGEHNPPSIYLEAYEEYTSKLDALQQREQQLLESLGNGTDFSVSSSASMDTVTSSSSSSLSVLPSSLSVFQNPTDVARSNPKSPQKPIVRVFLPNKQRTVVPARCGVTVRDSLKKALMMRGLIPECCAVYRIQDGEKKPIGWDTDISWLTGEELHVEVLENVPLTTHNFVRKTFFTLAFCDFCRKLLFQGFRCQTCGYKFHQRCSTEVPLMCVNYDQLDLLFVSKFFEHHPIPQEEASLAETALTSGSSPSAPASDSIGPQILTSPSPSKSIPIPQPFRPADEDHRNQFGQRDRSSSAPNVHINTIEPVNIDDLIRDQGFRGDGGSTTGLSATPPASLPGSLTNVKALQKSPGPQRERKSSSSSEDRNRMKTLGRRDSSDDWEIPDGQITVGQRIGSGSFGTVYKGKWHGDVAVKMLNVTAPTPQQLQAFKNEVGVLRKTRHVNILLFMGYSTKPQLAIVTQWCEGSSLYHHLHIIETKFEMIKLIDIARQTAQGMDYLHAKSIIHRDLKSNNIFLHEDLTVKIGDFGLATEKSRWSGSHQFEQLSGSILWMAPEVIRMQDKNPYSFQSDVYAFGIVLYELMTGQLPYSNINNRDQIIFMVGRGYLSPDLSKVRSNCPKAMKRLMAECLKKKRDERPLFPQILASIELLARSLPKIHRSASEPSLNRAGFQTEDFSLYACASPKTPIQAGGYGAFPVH

Chain of C-Raf FL (P04049 whole entry Y340E/Y341E): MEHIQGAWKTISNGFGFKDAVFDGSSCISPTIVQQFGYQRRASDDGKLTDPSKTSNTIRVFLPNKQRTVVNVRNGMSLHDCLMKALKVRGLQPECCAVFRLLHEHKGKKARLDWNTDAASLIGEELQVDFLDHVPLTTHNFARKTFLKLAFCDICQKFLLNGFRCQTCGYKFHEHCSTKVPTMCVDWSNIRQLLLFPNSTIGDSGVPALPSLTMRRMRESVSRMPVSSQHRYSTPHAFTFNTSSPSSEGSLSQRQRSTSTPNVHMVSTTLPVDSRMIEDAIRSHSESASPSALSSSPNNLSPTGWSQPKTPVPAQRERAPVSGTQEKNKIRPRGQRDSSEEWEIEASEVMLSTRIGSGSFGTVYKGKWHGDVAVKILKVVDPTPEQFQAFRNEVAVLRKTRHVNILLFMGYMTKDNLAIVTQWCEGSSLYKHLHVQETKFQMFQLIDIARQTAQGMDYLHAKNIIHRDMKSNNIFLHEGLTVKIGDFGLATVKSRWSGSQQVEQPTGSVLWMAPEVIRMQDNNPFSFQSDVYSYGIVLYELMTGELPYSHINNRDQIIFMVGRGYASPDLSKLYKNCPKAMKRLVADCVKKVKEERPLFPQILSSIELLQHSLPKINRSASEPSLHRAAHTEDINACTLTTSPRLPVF
Chain of C-Raf FL (P63104 whole entry partner): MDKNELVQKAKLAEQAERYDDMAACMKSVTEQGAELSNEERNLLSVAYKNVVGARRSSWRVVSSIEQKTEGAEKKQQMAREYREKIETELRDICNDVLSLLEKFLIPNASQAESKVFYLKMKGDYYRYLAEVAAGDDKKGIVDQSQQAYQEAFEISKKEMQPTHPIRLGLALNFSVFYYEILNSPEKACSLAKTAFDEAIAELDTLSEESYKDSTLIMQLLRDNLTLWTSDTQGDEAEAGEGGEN

Row | Compound | pIC50 (C-Raf FL) | pIC50 (b-Raf (V600E))
1 | CCC(F)(F)c1cc(C(=O)Nc2cnc(C)c(-c3cnc(OC)c(C4(C#N)COC4)c3)c2)ccn1 [Example 117, N-(5′-(3-cyanooxetan-3-yl)-6′-methoxy-2-methyl-[3,3′-bipyridin]-5-yl)-2-(1,1-difluoropropyl)isonicotin-amide] | 8.85 | 8.14
2 | Cc1ncc(NC(=O)c2cccc(C(F)(F)F)c2)cc1-c1cnc(OC2CCOCC2)c(C2(O)COC2)c1 [Example 118, N-(5′-(3-hydroxyoxetan-3-yl)-2-methyl-6′-((tetrahydro-2H-pyran-4-yl)oxy)-[3,3′-bipyridin]-5-yl)-3-(trifluoromethyl)benzamide] | 9.25 | 8.41
3 | Cc1ccc(NC(=O)c2cccc(C(F)(F)F)c2)cc1-c1cnc(OC2CCOCC2)c(C2(O)COC2)c1 [Example 119, N-(3-(5-(3-hydroxyoxetan-3-yl)-6-((tetrahydro-2H-pyran-4-yl)oxy)pyridin-3-yl)-4-methylphenyl)-3-(trifluoromethyl)benzamide] | 9.75 | 9.09
4 | CCOc1ncc(-c2cc(NC(=O)c3cc(C(C)(C)N)cc(C(F)(F)F)c3)ccc2C)cc1C1(O)COC1 [Example 120, 3-(2-aminopropan-2-yl)-N-(3-(6-ethoxy-5-(3-hydroxyoxetan-3-yl)pyridin-3-yl)-4-methylphenyl)-5-(trifluoromethyl)benzamide] | 8.66 | 8.00
5 | CCOc1ncc(-c2cc(NC(=O)c3ccnc(C(C)(C)C#N)c3)ccc2C)cc1C1(O)COC1 [Example 121, 2-(2-cyanopropan-2-yl)-N-(3-(6-ethoxy-5-(3-hydroxyoxetan-3-yl)pyridin-3-yl)-4-methylphenyl)isonicotin-amide] | 9.01 | 8.31
6 | CCOc1ncc(-c2cc(NC(=O)c3ccnc(C(C)(C)F)c3)ccc2C)cc1C1(O)COC1 [Example 122, N-(3-(6-ethoxy-5-(3-hydroxyoxetan-3-yl)pyridin-3-yl)-4-methylphenyl)-2-(2-fluoropropan-2-yl)isonicotinamide] | 9.49 | 8.75
7 | CCOc1ncc(-c2cc(NC(=O)c3ccnc(C(C)(F)F)c3)ccc2C)cc1C1(O)COC1 [Example 123, 2-(1,1-difluoroethyl)-N-(3-(6-ethoxy-5-(3-hydroxyoxetan-3-yl)pyridin-3-yl)-4-methylphenyl)isonicotin-amide] | 9.78 | 8.91
8 | CCOc1ncc(-c2cc(NC(=O)c3ccnc(C(F)(F)F)c3)ccc2C)cc1C1(O)COC1 [Example 124, N-(3-(6-ethoxy-5-(3-hydroxyoxetan-3-yl)pyridin-3-yl)-4-methylphenyl)-2-(trifluoromethyl)isonicotin-amide] | 9.43 | 8.64
9 | Cc1ncc(NC(=O)c2cc(C(C)(C)C#N)ccn2)cc1-c1cccc(C2(C)COC2)c1 [Example 126, 4-(2-cyanopropan-2-yl)-N-(6-methyl-5-(3-(3-methyloxetan-3-yl)phenyl)pyridin-3-yl)picolinamide] | 8.71 | 8.11

The remaining lines, values ahead:

Row | pIC50 (C-Raf FL) | pIC50 (b-Raf (V600E)) | Compound
10 | 9.01 | 8.50 | CCOc1nnc(-c2cc(NC(=O)c3ccnc(C(C)(F)F)c3)cnc2C)cc1C1(C)COC1 [Example 127, 2-(1,1-difluoroethyl)-N-(5-(6-ethoxy-5-(3-methyloxetan-3-yl)pyridazin-3-yl)-6-methylpyridin-3-yl)isonicotinamide]
11 | 9.20 | 8.67 | CCOc1nnc(-c2cc(NC(=O)c3ccnc(C(C)(C)F)c3)cnc2C)cc1C1(C)COC1 [Example 128, N-(5-(6-ethoxy-5-(3-methyloxetan-3-yl)pyridazin-3-yl)-6-methylpyridin-3-yl)-2-(2-fluoropropan-2-yl)isonicotinamide]
12 | 8.45 | 7.63 | CCOc1nnc(-c2cc(NC(=O)c3cc(CN(C)C)cc(C(F)(F)F)c3)cnc2C)cc1C1(C)COC1 [Example 129, 3-((dimethylamino)methyl)-N-(5-(6-ethoxy-5-(3-methyloxetan-3-yl)pyridazin-3-yl)-6-methylpyridin-3-yl)-5-(trifluoromethyl)benzamide]
13 | 8.51 | 7.70 | CCOc1ncc(-c2cc(NC(=O)c3cc(C(C)(C)N)cc(C(F)(F)F)c3)cnc2C)cc1C1(F)COC1 [Example 130, 3-(2-aminopropan-2-yl)-N-(6′-ethoxy-5′-(3-fluorooxetan-3-yl)-2-methyl-[3,3′-bipyridin]-5-yl)-5-(trifluoromethyl)benzamide]
14 | 9.51 | 8.89 | CCOc1ncc(-c2cc(NC(=O)c3ccnc(C(C)(C)F)c3)cnc2C)cc1C1(CF)COC1 [Example 131, N-(6′-ethoxy-5′-(3-(fluoromethyl)oxetan-3-yl)-2-methyl-[3,3′-bipyridin]-5-yl)-2-(2-fluoropropan-2-yl)isonicotinamide]
15 | 9.44 | 8.78 | Cc1ccc(NC(=O)c2ccnc(C(C)(F)F)c2)cc1-c1cnc(-c2cnn(C)c2)c(C2(O)COC2)c1 [Example 144, 2-(1,1-difluoroethyl)-N-(3-(5-(3-hydroxyoxetan-3-yl)-6-(1-methyl-1H-pyrazol-4-yl)pyridin-3-yl)-4-methylphenyl)isonicotin-amide]
16 | 8.14 | 7.31 | COc1ncc(-c2cc(C(=O)Nc3ccnc(S(C)(=O)=O)c3)ccc2C)cc1C1(O)COC1 [Example 145, 3-(5-(3-hydroxyoxetan-3-yl)-6-methoxypyridin-3-yl)-4-methyl-N-(2-(methylsulfonyl)pyridin-4-yl)benzamide]
17 | 9.10 | 8.48 | COc1ncc(-c2cc(C(=O)Nc3cccc(C(C)(C)C#N)c3)ccc2C)cc1C1(O)COC1 [Example 146, N-(3-(2-cyanopropan-2-yl)phenyl)-3-(5-(3-hydroxyoxetan-3-yl)-6-methoxypyridin-3-yl)-4-methylbenzamide]
